Measurements from paper PMC7846937 (Bioorganic chemistry, 2020).

Legend:
Assay in all cases: stopped-flow CO2 hydration assay
Type in all cases: biochemical
hCA II = hCA II (Homo sapiens, UniProt P00918)
hCA I = hCA I (Homo sapiens, UniProt P00915)
hCA XII = hCA XII (Homo sapiens, UniProt O43570)
hCA XII, sequence (O43570 30-289 limits assumed): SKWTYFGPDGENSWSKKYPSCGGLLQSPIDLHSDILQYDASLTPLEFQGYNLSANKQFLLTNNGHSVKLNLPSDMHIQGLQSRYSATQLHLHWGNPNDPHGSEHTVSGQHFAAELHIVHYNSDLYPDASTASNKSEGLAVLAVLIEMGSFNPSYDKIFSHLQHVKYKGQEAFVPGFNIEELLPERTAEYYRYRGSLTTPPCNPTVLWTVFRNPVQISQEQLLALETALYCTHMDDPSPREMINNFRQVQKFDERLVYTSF

hCA I, sequence (P00915 2-261): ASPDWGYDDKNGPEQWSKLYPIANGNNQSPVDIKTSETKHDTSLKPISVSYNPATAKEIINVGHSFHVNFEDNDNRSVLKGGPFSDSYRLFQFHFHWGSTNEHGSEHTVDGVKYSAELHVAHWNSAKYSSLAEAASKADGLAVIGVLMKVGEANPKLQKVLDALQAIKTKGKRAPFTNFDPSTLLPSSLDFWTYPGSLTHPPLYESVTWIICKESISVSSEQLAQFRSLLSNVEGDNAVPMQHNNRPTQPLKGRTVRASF

| Compound | Ki (hCA II) | Ki (hCA I) | Ki (hCA XII) |
| --- | --- | --- | --- |
| CCCc1cc(C)cc(CCC)[n+]1-c1cccc(S(N)(=O)=O)c1 [19c, 4-Methyl-2,6-di-n-propyl-1-(3-sulfamoylphenyl)pyridinium hexafluorophosphate] | 0.0078 µM | 0.0845 µM | 0.0036 µM |
| Cc1c2cc(c(C)[n+]1-c1cccc(S(N)(=O)=O)c1)CCCCCCCCC2 [19u, 2,6-Dimethyl-3,5-(1,9-nonane-diyl)-1-(3-sulfamoyl-phenyl)pyridinium hexafluorophosphate] | 0.0398 µM | 0.256 µM | 0.0251 µM |
| CCCCc1cc(C)cc(C)[n+]1-c1cccc(S(N)(=O)=O)c1 [19i, 2-n-Butyl-4,6-dimethyl-1-(3-sulfamoylphenyl)pyridinium hexafluorophosphate] | 0.0068 µM | 0.0651 µM | 0.004 µM |
| Cc1cc(-c2ccccc2)[n+](-c2cccc(S(N)(=O)=O)c2)c(-c2ccccc2)c1 [19w, 4-Methyl-2,6-diphenyl-1-(3-sulfamoylphenyl)pyridinium hexafluorophosphate] | 0.0067 µM | 0.0197 µM | 0.0088 µM |
| Cc1cc(-c2ccccc2)cc(C)[n+]1-c1cccc(S(N)(=O)=O)c1 [19j, 2,6-Dimethyl-4-phenyl-1-(3-sulfamoyl-phenyl)-pyridinium hexafluorophosphate] | 0.0012 µM | 0.0653 µM | 0.00087 µM |
| CCCCc1cc(-c2ccccc2)cc(-c2ccccc2)[n+]1-c1cccc(S(N)(=O)=O)c1 [19s, 2-n-Butyl-4,6-diphenyl-1-(3-sulfamoyl-phenyl)-pyridinium hexafluorophosphate] | 0.0439 µM | 0.137 µM | 0.0352 µM |
| NS(=O)(=O)c1cccc(-[n+]2c(-c3ccccc3)cc(-c3ccccc3)cc2-c2ccccc2)c1 [19x, 2,4,6-Triphenyl-1-(3-sulfamoylphenyl)pyridinium hexafluorophosphate] | 0.013 µM | 0.058 µM | 0.0217 µM |
| CCc1cc(-c2ccccc2)cc(-c2ccccc2)[n+]1-c1cccc(S(N)(=O)=O)c1 [19p, 2-Ethyl-4,6-diphenyl-1-(3-sulfamoyl-phenyl)-pyridinium hexafluorophosphate] | 0.004 µM | 0.018 µM | 0.0014 µM |
| Cc1cc(C)[n+](-c2cccc(S(N)(=O)=O)c2)c(C)c1C [19t, 2,3,4,6-Tetramethyl-1-(3-sulfamoylphenyl)pyridinium hexafluorophosphate] | 0.0026 µM | 0.0549 µM | 0.0034 µM |
| CCCc1cc(C)cc(C)[n+]1-c1cccc(S(N)(=O)=O)c1 [19g, 2,4-Dimethyl-6-n-propyl-1-(3-sulfamoylphenyl)pyridinium hexafluorophosphate] | 0.0072 µM | 0.0701 µM | 0.0054 µM |
| CCCc1cc(-c2ccccc2)cc(CCC)[n+]1-c1cccc(S(N)(=O)=O)c1 [19l, 2,6-Di-n-propyl-4-phenyl-1-(3-sulfamoyl-phenyl)-pyridinium hexafluorophosphate] | 0.018 µM | 0.0758 µM | 0.0215 µM |
| Cc1cc(C(C)C)[n+](-c2cccc(S(N)(=O)=O)c2)c(C(C)C)c1 [19d, 2,6-Diisopropyl-4-methyl-1-(3-sulfamoylphenyl)pyridinium hexafluorophosphate] | 0.0096 µM | 0.0338 µM | 0.0055 µM |
| CC(C)c1cc(-c2ccccc2)cc(C(C)C)[n+]1-c1cccc(S(N)(=O)=O)c1 [19m, 2,6-Diisopropyl-4-phenyl-1-(3-sulfamoylphenyl)pyridinium hexafluorophosphate] | 0.0093 µM | 0.0418 µM | 0.0058 µM |
| Cc1cc(C)[n+](-c2cccc(S(N)(=O)=O)c2)c(C)c1 [19a, 2,4,6-Trimethyl-1-(3-sulfamoylphenyl)pyridinium hexafluorophosphate] |  | 0.0821 µM |  |
| CCc1cc(C)cc(CC)[n+]1-c1cccc(S(N)(=O)=O)c1 [19b, 2,6-Diethyl-4-methyl-1-(3-sulfamoylphenyl)pyridinium hexafluorophosphate] | 0.0085 µM | 0.0863 µM | 0.004 µM |
| CCCCc1cc(-c2ccccc2)cc(CCCC)[n+]1-c1cccc(S(N)(=O)=O)c1 [19n, 2,6-Di-n-butyl-4-phenyl-1-(3-sulfamoyl-phenyl)-pyridinium hexafluorophosphate] | 0.0493 µM | 0.433 µM | 0.0402 µM |
| Cc1cc(C)[n+](-c2cccc(S(N)(=O)=O)c2)c(C(C)C)c1 [19h, 2-Isopropyl-4,6-dimethyl-1-(3-sulfamoylphenyl)pyridinium hexafluorophosphate] | 0.0104 µM | 0.0607 µM | 0.0074 µM |
| CCCCc1cc(C)cc(CCCC)[n+]1-c1cccc(S(N)(=O)=O)c1 [19e, 2,6-Di-n-butyl-4-methyl-1-(3-sulfamoylphenyl)pyridinium hexafluorophosphate] | 0.0581 µM | 0.462 µM | 0.0515 µM |
| Cc1cc(-c2ccccc2)cc(-c2ccccc2)[n+]1-c1cccc(S(N)(=O)=O)c1 [19o, 2-Methyl-4,6-diphenyl-1-(3-sulfamoyl-phenyl)-pyridinium hexafluorophosphate] | 0.0034 µM | 0.0085 µM | 0.00096 µM |
| CCc1cc(C)cc(C)[n+]1-c1cccc(S(N)(=O)=O)c1 [19f, 2-Ethyl-4,6-dimethyl-1-(3-sulfamoylphenyl)pyridinium hexafluorophosphate] | 0.0129 µM | 0.0636 µM | 0.0037 µM |
| Cc1cc(C)[n+](-c2cccc(S(N)(=O)=O)c2)c(-c2ccccc2)c1 [19v, 2,4-Dimethyl-6-phenyl-1-(3-sulfamoylphenyl)pyridinium hexafluorophosphate] | 0.0088 µM | 0.0723 µM | 0.0047 µM |
| CCc1cc(-c2ccccc2)cc(CC)[n+]1-c1cccc(S(N)(=O)=O)c1 [19k, 2,6-Diethyl-4-phenyl-1-(3-sulfamoyl-phenyl)-pyridinium hexafluorophosphate] | 0.0102 µM | 0.0716 µM | 0.0121 µM |
